Results taken from ChEMBL document CHEMBL5149994, “Anticancer potential of indirubins in medicinal chemistry: Biological activity, structural modification, and structure-activity relationship” (Eur J Med Chem, 2021).

What was measured:
Assay type in all cases: functional
[1] = Antiproliferative activity against human TT cells assessed as cell growth inhibition measured after 72 hrs by EZ-CyTox reagent based analysis
[2] = Antitumor activity against human TT cells xenografted in BALB/c nu/nu mouse assessed as reduction in tumour weight at 40 mg/kg per day, po administered via oral gavage daily measured after 21 days relative to control; set-up: scale not given: the % may be the effect or the level left; conditions: time 21 day
MeWo = assay: Antitumor activity against human MeWo cells xenografted in mouse assessed as reduction in tumour volume at 50 mg/kg per day, po administered via oral gavage measured after 14 days relative to control; set-up: scale not given: the % may be the effect or the level left; conditions: time 14 day
MV4-11 [3] = assay: Antiproliferative activity against human MV4-11 cells assessed as cell growth inhibition
PC-3 = assay: Antiproliferative activity against human PC-3 cells assessed as cell growth inhibition
SNU-638 = assay: Antiproliferative activity against human SNU-638 cells assessed as cell growth inhibition
MV4-11 [4] = assay: Antitumor activity against human MV4-11 cells xenografted in mouse assessed as reduction in tumour volume at 10 mg/kg per day, iv measured after 21 days relative to control; set-up: scale not given: the % may be the effect or the level left; conditions: time 21 day

With `Cl.O=C1Nc2ccccc2/C1=C1/Nc2ccccc2/C1=N\OCCN1CCNCC1` the GI50 [1] was 68200 nM and the Activity [2] was 62.5%.
In the case of `Cl.Cl.O=C1Nc2c(Br)cccc2/C1=C1/Nc2ccccc2/C1=N\OCCN1CCNCC1`, the Activity (MeWo) is reported as 37%.
For `COC(=O)c1ccc2c(c1)/C(=C1/Nc3ccccc3/C1=N\OCCN1CCNCC1)C(=O)N2.Cl.Cl`, the GI50 (MV4-11 [3]) was 1.2 nM, the GI50 (PC-3) was 1100 nM and the GI50 (SNU-638) was 2250 nM. For the same compound, the Activity (MV4-11 [4]) was 100%.
